Key:
Parameters in all cases: purchased Milipore (Millipore)
[1] = molecular target: T1, Human adrenergic α2B receptor (Homo sapiens, UniProt P18089); test: Radioligand binding, adrenergic α2B (Protocol Group B); conditions: Protocol Group B; for Percentage inhibition of ligand binding, Adrenergic α2B (10 nM): 0.01 µM; for Percentage inhibition of ligand binding, Adrenergic α2B (30 nM): 30 nM compound, 0.03 µM; for Percentage inhibition of ligand binding, Adrenergic α2B (0.1 μM): 0.1 μM compound
T1 sequence (P18089 1-450): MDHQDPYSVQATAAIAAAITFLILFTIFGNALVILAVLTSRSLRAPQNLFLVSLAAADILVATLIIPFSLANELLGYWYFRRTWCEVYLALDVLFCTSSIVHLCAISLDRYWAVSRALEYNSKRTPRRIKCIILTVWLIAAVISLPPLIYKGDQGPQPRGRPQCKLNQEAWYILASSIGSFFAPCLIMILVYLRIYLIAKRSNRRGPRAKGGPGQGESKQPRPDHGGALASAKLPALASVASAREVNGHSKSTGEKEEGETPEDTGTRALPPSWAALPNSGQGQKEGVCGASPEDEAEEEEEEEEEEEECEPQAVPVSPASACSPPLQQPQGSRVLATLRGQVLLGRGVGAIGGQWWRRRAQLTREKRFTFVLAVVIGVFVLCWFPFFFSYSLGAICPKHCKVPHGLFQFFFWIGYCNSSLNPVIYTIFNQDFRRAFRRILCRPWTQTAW
In short: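 Compounds at various concentrations in 1% DMSO were tested on recombinant membranes in Tris-HCl pH 7.4 buffer containing MgCl2, CaCl2 and 0.2% BSA.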

[2] = molecular target: T2, Human adrenergic α2A receptor (Homo sapiens, UniProt P08913); test: Radioligand binding, adrenergic α2A (Protocol Group B); conditions: Protocol Group B; for Percentage inhibition of ligand binding, Adrenergic α2A (0.3 μM): 0.3 μM compound
T2 sequence (P08913 1-465): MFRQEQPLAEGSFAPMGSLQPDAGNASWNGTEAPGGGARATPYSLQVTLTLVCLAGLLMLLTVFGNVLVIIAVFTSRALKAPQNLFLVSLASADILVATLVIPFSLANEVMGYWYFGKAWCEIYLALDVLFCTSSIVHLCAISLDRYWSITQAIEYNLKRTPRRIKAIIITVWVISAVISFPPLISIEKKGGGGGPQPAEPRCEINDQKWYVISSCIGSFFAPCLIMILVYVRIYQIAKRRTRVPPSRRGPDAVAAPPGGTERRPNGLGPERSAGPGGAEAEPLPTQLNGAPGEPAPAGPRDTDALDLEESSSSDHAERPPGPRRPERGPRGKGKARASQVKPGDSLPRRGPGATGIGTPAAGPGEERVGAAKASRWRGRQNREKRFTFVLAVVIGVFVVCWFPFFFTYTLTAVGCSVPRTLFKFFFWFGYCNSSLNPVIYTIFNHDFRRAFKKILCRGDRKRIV
In short: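 Compounds (1% DMSO vehicle, various concentrations) competed against 2 nM [^3H]MK-912 on recombinant receptor membranes for 60 min at 25° C, Tris-HCl pH 7.4 buffer with Mg2+, Ca2+, BSA. Bound radioligand filtered and counted; 10 μM rauwolscine set nonspecific binding. Values: percent inhibition of specific binding or estimated Ki.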

[3] = molecular target: T3, Human adrenergic α1B receptor (Homo sapiens, UniProt P35368); test: Radioligand binding, adrenergic α1B (Protocol Group B); conditions: Protocol Group B; for Percentage inhibition of ligand binding, Adrenergic α1B (0.1 μM): 0.1 μM compound; for Percentage inhibition of ligand binding, Adrenergic α1B (0.3 μM): 0.3 μM compound
T3 sequence (P35368 1-520): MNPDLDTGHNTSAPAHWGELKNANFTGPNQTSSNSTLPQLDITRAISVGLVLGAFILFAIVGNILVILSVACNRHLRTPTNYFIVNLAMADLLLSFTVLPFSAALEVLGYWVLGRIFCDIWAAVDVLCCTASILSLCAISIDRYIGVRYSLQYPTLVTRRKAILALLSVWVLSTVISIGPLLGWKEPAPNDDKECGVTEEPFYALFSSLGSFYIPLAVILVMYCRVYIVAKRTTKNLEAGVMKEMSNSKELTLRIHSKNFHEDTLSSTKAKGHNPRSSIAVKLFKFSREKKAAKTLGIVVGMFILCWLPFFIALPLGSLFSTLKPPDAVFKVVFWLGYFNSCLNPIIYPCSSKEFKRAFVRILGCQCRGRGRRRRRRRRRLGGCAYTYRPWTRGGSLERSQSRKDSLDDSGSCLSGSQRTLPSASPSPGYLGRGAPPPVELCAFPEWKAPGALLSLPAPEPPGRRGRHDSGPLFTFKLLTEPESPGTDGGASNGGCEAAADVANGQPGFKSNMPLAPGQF
In short: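 Values are percent inhibition of specific [3H]prazosin (0.3 nM) binding or estimated Ki, from filtration counting. Human α1B recombinant membranes, Tris-HCl pH 7.4 buffer with MgCl2 and EDTA, 60 min at 25 °C, 1% DMSO vehicle; 10 μM prazosin defined nonspecific binding.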

Row | SMILES | Percentage inhibition of ligand binding, Adrenergic α2B (10 nM) ([1]; 10 nM compound) [%] | Percentage inhibition of ligand binding, Adrenergic α2B (30 nM) [1] [%] | Ki ([1]; estimated Ki, read-out: Ki α2B) [nM] | Percentage inhibition of ligand binding, Adrenergic α2A (0.1 μM) ([2]; 0.1 μM compound) [%] | Percentage inhibition of ligand binding, Adrenergic α2A (0.3 μM) [2] [%] | Ki ([2]; estimated Ki) [nM] | Percentage inhibition of ligand binding, Adrenergic α1B (0.1 μM) [3] [%] | Percentage inhibition of ligand binding, Adrenergic α1B (0.3 μM) [3] [%] | Percentage inhibition of ligand binding, Adrenergic α2B (0.1 μM) [1] [%] | inhibition at 0.01 µM ([1]; 10 nM compound, read-out: Percentage inhibition of ligand binding, Adrenergic α2B (10 nM)) [%] | inhibition at 0.1 µM ([2]; 0.1 μM compound, read-out: Percentage inhibition of ligand binding, Adrenergic α2A (0.1 μM)) [%]
1 | Cc1cc(F)cc2c3c(n(CC(C)(O)c4cccnc4)c12)CCN1CCCC31 (single isomer, unassigned) [75c] | 90 | 96 | 0.98 | 67 | 84 | 24.5 | 41 | 69 | – | – | –
2 | Cc1cc(F)cc2c3c(n(CC(C)(O)c4cccnc4)c12)CC1CCCN1C3 (single isomer, unassigned) [76a] | 12 | 21 | – | −3 | 12 | – | −8 | 11 | 53 | – | –
3 | Cc1cc(F)cc2c3c(n(CC(C)(O)c4cccnc4)c12)CC1CCCN1C3 (single isomer, unassigned) [76b] | 11 | 5 | – | 5 | 0 | – | 4 | 3 | 20 | – | –
4 | Cc1cc(F)cc2c3c(n(CC(C)(O)c4cccnc4)c12)CC1CCCN1C3 (single isomer, unassigned) [76c] | −3 | −3 | – | 19 | 18 | – | 19 | 33 | – | – | –
5 | Cc1cc(F)cc2c3c(n(CC(C)(O)c4ccncc4)c12)CCN1CCCC31 (single isomer, unassigned) [77a] | – | 30 | – | – | 19 | – | 7 | 32 | – | 12 | 3
6 | Cc1cc(F)cc2c3c(n(CC(C)(O)c4ccncc4)c12)CCN1CCCC31 (single isomer, unassigned) [77b] | 6 | 12 | – | 5 | 9 | – | −3 | 14 | – | – | –
7 | Cc1cc(F)cc2c3c(n(CC(C)(O)c4ccncc4)c12)CC1CCCN1C3 (single isomer, unassigned) [78a] | −1 | −1 | – | −11 | −7 | – | 2 | 12 | 5 | – | –
8 | Cc1cc(F)cc2c3c(n(CC(C)(O)c4ccncc4)c12)CC1CCCN1C3 (single isomer, unassigned) [78b] | 0 | 7 | – | −7 | 8 | – | 2 | 12 | 22 | – | –
9 | Cc1cc(F)cc2c3c(n(CC(C)(O)c4ccncc4)c12)CC1CCCN1C3 (single isomer, unassigned) [78c] | 20 | 33 | – | 3 | −1 | – | −11 | −2 | – | – | –
10 | Cc1cc(F)cc2c3c(n(CC(C)(O)c4ccncc4)c12)CC1CCCN1C3 (single isomer, unassigned) [78d] | 1 | −3 | – | 2 | −4 | – | 1 | 7 | – | – | –
11 | Cc1cc(F)c2c(c1)c1c(n2CC(C)(O)c2cccnc2)CCN2CCCC12 (single isomer, unassigned) [79c] | −6 | 7 | – | −3 | −1 | – | 1 | 6 | – | – | –
12 | Cc1cc(F)c2c(c1)c1c(n2CC(C)(O)c2cccnc2)CCN2CCCC12 (single isomer, unassigned) [79d] | −7 | 3 | – | −7 | 5 | – | −4 | 1 | – | – | –

From US20150315188A1, “COMPOUNDS AND METHODS FOR TREATMENT OF HYPERTENSION” (MEDIVATION TECHNOLOGIES, INC., priority 2012, published 2015)
